Patent US20090042823A1 (priority 2007, published 2009)

Test system: PR8 virus
Parameters: species or system influenza A virus
Conditions: in vivo

For `CCOC(=O)C1=C[C@@H](OC(CC)CC)[C@H](NC(C)=O)[C@@H](N)C1` [oseltamivir drug, oseltamivir], the “influenza viral titer relative to GFP control siRNA” value was “reduced influenza viral titers”.
